What was measured:
Format in all cases: biochemical
Lck = biological target: T1, Lck (Homo sapiens, UniProt P06239); assay: Kinase inhibition assay (33P transfer), Lck; conditions: read-out: Lck-1
T1 construct: Kinases are expressed as either kinase domains or full length constructs; made in house
Procedure, shortened: (§1)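 Enzyme activity is taken as the amount of 33PO4 moved from ATP onto poly(Glu, Tyr) 4:1 or poly(Arg, Ser) 3:1 fixed to the plate surface. Unbound label is removed with 0.5% phosphoric acid before scintillation counting.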

Zap-70 = biological target: T2, Zap-70 (Homo sapiens, UniProt P43403); assay: Kinase inhibition assay (33P transfer), Zap-70; conditions: read-out: Zap-1
T2 construct: Kinases are expressed as either kinase domains or full length constructs; made in house
T2 sequence (P43403 1-619): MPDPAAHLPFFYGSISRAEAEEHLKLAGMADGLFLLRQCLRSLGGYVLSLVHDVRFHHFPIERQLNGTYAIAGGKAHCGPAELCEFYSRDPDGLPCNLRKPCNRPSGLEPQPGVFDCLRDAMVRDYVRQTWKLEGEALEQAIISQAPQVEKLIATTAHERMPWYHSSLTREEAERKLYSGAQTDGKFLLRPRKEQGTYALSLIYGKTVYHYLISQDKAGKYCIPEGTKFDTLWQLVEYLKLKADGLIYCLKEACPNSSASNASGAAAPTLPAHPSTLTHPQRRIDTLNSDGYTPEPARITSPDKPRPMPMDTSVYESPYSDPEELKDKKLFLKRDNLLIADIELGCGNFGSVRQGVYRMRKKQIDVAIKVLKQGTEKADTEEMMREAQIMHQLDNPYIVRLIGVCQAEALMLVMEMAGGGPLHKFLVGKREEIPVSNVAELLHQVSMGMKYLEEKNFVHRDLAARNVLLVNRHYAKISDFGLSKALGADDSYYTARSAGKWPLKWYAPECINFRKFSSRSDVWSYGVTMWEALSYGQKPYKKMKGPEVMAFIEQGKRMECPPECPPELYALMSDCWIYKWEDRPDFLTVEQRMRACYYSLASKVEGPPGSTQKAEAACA
Procedure, shortened: as §1

Itk = biological target: T3, Itk (Homo sapiens, UniProt Q08881); assay: Kinase inhibition assay (33P transfer), Itk; conditions: read-out: Itk-1
T3 construct: Kinases are expressed as either kinase domains or full length constructs; made in house
T3 sequence (Q08881 1-620): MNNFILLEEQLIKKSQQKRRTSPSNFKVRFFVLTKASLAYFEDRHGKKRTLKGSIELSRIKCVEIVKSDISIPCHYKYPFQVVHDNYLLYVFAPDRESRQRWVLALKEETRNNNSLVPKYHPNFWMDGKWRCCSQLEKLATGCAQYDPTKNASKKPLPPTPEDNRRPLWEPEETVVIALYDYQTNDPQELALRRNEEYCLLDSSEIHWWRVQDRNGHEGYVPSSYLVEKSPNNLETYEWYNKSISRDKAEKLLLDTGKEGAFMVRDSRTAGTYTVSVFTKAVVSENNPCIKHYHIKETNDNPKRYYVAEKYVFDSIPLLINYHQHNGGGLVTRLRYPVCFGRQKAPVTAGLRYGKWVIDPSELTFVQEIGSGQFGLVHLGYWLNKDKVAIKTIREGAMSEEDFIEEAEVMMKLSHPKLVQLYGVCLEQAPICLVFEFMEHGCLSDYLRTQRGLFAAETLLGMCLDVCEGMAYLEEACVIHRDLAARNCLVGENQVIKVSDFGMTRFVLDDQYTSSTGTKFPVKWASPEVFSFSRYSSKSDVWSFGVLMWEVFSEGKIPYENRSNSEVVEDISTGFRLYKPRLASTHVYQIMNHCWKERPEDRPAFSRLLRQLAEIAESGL
Procedure, shortened: (§2)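 GST/His-fusion kinases, E. coli or High Five expressed, affinity purified; 33P-ATP, plate-coated poly(Glu,Tyr) 4:1 or poly(Arg,Ser) 3:1; 0.5% H3PO4 wash, scintillant, LSC.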

EGFR = biological target: T4, EGFR (Homo sapiens, UniProt P00533); assay: Kinase inhibition assay (33P transfer), EGFR; conditions: Table 2, kinase inhibition class; read-out: EGFR-1
T4 construct: Kinases are expressed as either kinase domains or full length constructs; made in house
T4 sequence (P00533 25-1210, species assumed): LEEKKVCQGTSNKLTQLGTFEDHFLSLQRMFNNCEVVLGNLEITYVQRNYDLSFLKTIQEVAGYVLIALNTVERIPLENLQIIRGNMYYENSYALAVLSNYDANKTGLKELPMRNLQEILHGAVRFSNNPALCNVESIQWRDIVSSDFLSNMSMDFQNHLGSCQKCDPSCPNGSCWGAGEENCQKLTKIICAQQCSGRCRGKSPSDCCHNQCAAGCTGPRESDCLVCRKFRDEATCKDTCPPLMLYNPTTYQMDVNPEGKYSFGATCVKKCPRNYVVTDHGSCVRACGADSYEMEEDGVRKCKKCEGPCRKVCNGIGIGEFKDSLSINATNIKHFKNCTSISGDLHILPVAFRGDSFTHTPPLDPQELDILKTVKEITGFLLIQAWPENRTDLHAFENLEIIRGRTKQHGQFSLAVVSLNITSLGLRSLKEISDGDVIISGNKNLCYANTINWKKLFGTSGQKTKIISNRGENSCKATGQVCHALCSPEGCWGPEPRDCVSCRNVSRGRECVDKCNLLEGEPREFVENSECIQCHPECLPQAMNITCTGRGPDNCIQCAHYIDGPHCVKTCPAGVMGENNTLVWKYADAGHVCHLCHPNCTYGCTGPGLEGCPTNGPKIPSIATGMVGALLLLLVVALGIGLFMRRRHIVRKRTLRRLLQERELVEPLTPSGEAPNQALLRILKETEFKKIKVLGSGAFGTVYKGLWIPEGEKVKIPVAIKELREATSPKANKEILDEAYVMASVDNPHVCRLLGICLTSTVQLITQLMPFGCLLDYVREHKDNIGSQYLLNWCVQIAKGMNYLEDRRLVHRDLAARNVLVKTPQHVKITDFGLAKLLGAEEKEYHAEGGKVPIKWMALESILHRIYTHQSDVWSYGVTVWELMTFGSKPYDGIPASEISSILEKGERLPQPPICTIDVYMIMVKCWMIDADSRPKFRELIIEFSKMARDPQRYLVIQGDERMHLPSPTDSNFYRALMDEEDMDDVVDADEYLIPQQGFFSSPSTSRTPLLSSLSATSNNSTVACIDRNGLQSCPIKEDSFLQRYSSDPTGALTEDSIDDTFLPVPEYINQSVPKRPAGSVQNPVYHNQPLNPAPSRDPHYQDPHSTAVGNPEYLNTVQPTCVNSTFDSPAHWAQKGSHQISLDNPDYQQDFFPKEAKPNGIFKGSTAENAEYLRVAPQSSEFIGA
Procedure, shortened: as §2

ErbB2 = biological target: T5, ErbB2 (Homo sapiens, UniProt P04626); assay: Kinase inhibition assay (33P transfer), ErbB2; conditions: read-out: ErbB2-2
T5 construct: Kinases are expressed as either kinase domains or full length constructs; made in house
Procedure, shortened: as §2

Kdr = biological target: T6, Kdr (Homo sapiens, UniProt P35968); assay: Kinase inhibition assay (33P transfer), Kdr; conditions: read-out: KDR-1
T6 construct: Kinases are expressed as either kinase domains or full length constructs; made in house
Procedure, shortened: as §1

c-Met = biological target: T7, c-Met (Homo sapiens, UniProt P08581); assay: Kinase inhibition assay (33P transfer), c-Met; conditions: Table 2, kinase inhibition class; read-out: Met-1
T7 construct: Kinases are expressed as either kinase domains or full length constructs; made in house
T7 sequence (P08581 25-1390): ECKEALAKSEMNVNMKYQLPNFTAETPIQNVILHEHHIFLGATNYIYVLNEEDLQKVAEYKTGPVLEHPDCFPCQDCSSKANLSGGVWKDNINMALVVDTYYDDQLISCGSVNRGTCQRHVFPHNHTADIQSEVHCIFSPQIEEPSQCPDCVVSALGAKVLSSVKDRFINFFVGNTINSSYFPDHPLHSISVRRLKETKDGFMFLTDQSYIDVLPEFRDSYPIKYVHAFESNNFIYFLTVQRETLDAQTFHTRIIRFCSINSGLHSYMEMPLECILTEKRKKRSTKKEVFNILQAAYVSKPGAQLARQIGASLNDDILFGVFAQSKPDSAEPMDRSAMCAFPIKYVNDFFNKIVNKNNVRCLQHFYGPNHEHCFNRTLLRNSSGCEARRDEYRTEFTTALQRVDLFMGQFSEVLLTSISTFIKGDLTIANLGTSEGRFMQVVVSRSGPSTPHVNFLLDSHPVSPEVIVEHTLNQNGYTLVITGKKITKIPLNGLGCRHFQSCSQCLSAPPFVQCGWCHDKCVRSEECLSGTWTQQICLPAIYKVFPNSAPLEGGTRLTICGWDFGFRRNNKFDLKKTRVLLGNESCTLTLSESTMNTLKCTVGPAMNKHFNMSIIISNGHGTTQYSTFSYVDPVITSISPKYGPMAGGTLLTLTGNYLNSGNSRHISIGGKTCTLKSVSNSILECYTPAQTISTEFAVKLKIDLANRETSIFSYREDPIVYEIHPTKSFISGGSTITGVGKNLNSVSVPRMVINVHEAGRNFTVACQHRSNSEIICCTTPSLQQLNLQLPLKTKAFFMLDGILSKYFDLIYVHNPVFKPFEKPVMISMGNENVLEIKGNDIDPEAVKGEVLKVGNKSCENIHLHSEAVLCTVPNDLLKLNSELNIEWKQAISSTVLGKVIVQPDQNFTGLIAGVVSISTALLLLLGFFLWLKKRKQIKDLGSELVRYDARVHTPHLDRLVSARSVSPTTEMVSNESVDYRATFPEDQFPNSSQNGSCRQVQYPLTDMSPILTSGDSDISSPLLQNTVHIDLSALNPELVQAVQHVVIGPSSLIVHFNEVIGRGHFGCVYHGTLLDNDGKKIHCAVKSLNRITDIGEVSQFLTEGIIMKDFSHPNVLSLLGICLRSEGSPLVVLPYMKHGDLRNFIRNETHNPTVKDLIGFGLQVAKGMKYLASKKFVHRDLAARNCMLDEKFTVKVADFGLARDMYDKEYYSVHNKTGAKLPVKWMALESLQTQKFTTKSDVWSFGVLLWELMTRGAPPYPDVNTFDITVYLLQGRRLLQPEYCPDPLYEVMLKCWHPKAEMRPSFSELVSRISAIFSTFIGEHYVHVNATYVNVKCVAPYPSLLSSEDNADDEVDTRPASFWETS
Procedure, shortened: as §2

AKT = biological target: T8, AKT (Homo sapiens, UniProt Q9Y243); assay: Kinase inhibition assay (33P transfer), AKT; conditions: Table 2, kinase inhibition class; read-out: AKT3-1
T8 construct: Kinases are expressed as either kinase domains or full length constructs; made in house
T8 sequence (Q9Y243 whole entry, the tested form may be a part): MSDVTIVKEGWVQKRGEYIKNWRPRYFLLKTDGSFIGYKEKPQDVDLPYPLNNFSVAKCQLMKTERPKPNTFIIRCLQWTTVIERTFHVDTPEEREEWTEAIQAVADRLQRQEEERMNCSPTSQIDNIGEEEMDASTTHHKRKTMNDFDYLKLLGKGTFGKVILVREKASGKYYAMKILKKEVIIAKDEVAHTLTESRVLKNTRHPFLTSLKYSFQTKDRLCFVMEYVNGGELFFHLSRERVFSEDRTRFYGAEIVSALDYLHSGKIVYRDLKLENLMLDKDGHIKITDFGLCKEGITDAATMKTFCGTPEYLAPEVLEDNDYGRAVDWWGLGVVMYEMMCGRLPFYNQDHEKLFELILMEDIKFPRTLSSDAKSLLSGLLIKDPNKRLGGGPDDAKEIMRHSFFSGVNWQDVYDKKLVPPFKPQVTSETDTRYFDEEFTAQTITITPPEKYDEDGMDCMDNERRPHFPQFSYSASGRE
Procedure, shortened: as §1

IGFR-1 = biological target: T9, IGFR-1 (Homo sapiens, UniProt P08069); assay: Kinase inhibition assay, IGFR-1 (Table 2); conditions: Table 2, kinase inhibition class
T9 construct: Kinases are expressed as either kinase domains or full length constructs; made in house
T9 sequence (P08069 31-1367): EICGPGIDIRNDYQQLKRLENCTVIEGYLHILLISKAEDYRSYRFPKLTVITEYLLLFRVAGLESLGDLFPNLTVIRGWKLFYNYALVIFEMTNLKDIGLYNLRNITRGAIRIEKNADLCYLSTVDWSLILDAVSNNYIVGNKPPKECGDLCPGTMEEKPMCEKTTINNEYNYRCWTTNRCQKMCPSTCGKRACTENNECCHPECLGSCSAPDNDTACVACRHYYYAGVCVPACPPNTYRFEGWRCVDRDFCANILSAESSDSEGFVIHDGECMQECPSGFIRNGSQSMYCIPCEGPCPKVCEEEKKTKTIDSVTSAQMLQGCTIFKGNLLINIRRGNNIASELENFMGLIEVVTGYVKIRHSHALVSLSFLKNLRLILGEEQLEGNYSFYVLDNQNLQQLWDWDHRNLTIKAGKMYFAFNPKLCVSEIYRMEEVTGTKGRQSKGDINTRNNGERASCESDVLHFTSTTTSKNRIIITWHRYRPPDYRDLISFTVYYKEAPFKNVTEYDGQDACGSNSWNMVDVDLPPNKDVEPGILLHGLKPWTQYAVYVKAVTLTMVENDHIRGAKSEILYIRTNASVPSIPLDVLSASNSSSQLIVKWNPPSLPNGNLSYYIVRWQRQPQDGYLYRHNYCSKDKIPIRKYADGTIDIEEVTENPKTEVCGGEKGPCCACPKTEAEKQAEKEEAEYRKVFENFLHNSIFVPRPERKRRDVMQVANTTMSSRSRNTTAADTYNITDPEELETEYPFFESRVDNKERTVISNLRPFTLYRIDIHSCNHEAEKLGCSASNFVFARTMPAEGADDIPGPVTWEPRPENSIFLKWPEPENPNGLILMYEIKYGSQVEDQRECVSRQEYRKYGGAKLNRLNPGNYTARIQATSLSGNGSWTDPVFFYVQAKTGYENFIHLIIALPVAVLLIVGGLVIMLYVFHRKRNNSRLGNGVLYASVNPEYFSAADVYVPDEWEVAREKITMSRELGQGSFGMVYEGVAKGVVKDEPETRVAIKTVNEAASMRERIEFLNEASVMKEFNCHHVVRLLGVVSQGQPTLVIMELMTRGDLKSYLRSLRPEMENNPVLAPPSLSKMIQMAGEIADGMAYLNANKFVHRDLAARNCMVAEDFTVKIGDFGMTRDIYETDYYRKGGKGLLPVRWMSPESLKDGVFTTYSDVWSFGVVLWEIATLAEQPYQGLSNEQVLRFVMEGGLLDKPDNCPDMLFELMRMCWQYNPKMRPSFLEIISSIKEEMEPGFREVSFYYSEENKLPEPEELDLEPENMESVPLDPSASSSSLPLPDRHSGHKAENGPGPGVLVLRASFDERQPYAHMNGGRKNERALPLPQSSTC

PDGFRB = biological target: T10, PDGFRB (Homo sapiens, UniProt P09619); assay: Kinase inhibition assay (33P transfer), PDGFRB; conditions: read-out: PDGFRB-1
T10 construct: Kinases are expressed as either kinase domains or full length constructs; made in house

T1 sequence (P06239 whole entry, species assumed, the tested form may be a part): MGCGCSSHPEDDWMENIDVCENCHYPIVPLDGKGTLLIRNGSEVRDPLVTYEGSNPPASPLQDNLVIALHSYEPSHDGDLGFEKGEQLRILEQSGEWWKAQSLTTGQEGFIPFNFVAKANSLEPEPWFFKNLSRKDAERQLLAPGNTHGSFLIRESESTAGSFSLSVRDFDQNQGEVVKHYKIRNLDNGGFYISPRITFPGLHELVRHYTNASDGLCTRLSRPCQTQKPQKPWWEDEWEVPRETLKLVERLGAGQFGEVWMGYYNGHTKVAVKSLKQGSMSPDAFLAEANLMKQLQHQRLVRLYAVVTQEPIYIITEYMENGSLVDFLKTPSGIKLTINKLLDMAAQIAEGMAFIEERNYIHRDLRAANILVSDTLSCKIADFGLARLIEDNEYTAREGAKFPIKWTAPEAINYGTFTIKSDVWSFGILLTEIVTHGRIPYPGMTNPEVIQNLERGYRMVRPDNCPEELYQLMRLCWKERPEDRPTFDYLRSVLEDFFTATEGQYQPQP

| IC50 (Lck) [µM] | IC50 (Zap-70) [µM] | IC50 (Itk) [µM] | IC50 (EGFR) [µM] | IC50 (ErbB2) [µM] | IC50 (Kdr) [µM] | IC50 (c-Met) [µM] | IC50 (AKT) [µM] | IC50 (IGFR-1) [µM] | IC50 (PDGFRB) [µM] | Structure (SMILES) |
| --- | --- | --- | --- | --- | --- | --- | --- | --- | --- | --- |
| 1.09 to 6.53 | > 12.2 | > 12.2 | > 12.2 | 6.53 to 9.53 | 9.53 to 12.2 | > 12.2 | > 12.2 | 1.09 to 6.53 | 6.53 to 9.53 | CCOc1cccc(Nc2ncnc(Nc3ccc(OC)c(OC)c3)n2)c1 [Compound 783] |
| < 0.712 | > 8.01 | > 8.01 | 4.27 to 6.23 | > 8.01 | < 0.712 | > 8.01 | > 8.01 | > 8.01 | < 0.712 | COc1cc(Nc2ncnc(-c3cccnc3NCc3ccc(F)cc3)n2)cc(OC)c1OCCN1CCOCC1 [Compound 564] |
| > 12.9 | > 12.9 | 10 to 12.9 | > 12.9 | > 12.9 | > 12.9 | > 12.9 | > 12.9 | > 12.9 | 10 to 12.9 | Cc1ccc2c(c1)CCCN2c1ncnc(NCCCn2ccnc2)n1 [Compound 772] |
| > 8.9 | > 8.9 | > 8.9 | > 8.9 | > 8.9 | > 8.9 | > 8.9 | > 8.9 | > 8.9 | > 8.9 | CN1CCN(Cc2cccc(Nc3ncnc(Nc4ccc5c(cnn5Cc5ccccc5)c4)n3)c2)CC1 [Compound 552] |
| 6.96 to 8.95 | > 8.95 | > 8.95 | > 8.95 | > 8.95 | > 8.95 | 4.78 to 6.96 | > 8.95 | 0.796 to 4.78 | > 8.95 | C=CCNC(=O)c1ccc(-c2cc(Nc3ncnc(Nc4cc(OC)c(OC)c(OC)c4)n3)[nH]n2)cc1 [Compound 1005] |
| 1.08 to 6.45 | > 12.1 | > 12.1 | < 1.08 | < 1.08 | 1.08 to 6.45 | 1.08 to 6.45 | > 12.1 | > 12.1 | 1.08 to 6.45 | COc1cc(Nc2ncnc(N(C)c3cccc(Cl)c3)n2)cc(OC)c1 [Compound 712] |
| 0.757 to 4.54 | > 8.51 | > 8.51 | > 8.51 | 6.62 to 8.51 | < 0.757 | 6.62 to 8.51 | > 8.51 | > 8.51 | < 0.757 | COc1cc(Nc2ncnc(-n3c(NCc4cccc([N+](=O)[O-])c4)nc4ccccc43)n2)cc(OC)c1OC [Compound 572] |
| 1.3 to 7.81 | > 14.6 | < 1.3 | 1.3 to 7.81 | 1.3 to 7.81 | 1.3 to 7.81 | 1.3 to 7.81 | > 14.6 | 1.3 to 7.81 | 1.3 to 7.81 | Cc1ccc2c(c1)CCCN2c1ncnc(Nc2cc[nH]n2)n1 [Compound 766] |
| < 0.796 | > 8.95 | 0.796 to 4.78 | 0.796 to 4.78 | 0.796 to 4.78 | 0.796 to 4.78 | 6.96 to 8.95 | > 8.95 | 0.796 to 4.78 | < 0.796 | COc1cc(Nc2ncnc(Nc3ccc(OCC(=O)Nc4ccccc4)cc3)n2)cc(OC)c1OC [Compound 623] |
| > 14.2 | > 14.2 | > 14.2 | 1.26 to 7.56 | 1.26 to 7.56 | > 14.2 | > 14.2 | > 14.2 | > 14.2 | > 14.2 | Nc1ncnc(Nc2ccc3c(cnn3Cc3ccccc3)c2)n1 [Compound 665] |
| > 14.3 | > 14.3 | > 14.3 | < 1.27 | > 14.3 | > 14.3 | > 14.3 | > 14.3 | > 14.3 | > 14.3 | CN(c1cccc(Cl)c1)c1ncnc(Nc2ncccn2)n1 [Compound 757] |
| 4.71 to 6.87 | > 8.83 | > 8.83 | 4.71 to 6.87 | 0.785 to 4.71 | 0.785 to 4.71 | > 8.83 | > 8.83 | > 8.83 | 6.87 to 8.83 | COc1cc(Nc2ncnc(-n3c(NC4CCc5ccccc54)nc4ccccc43)n2)cc(OC)c1OC (centres unmarked) [Compound 1044] |
| 0.815 to 4.89 | > 9.17 | > 9.17 | 4.89 to 7.13 | 0.815 to 4.89 | < 0.815 | > 9.17 | > 9.17 | > 9.17 | < 0.815 | COc1cc(Nc2ncnc(-n3c(NCc4nccs4)nc4ccccc43)n2)cc(OC)c1OC [Compound 549] |
| > 11.1 | > 11.1 | > 11.1 | > 11.1 | > 11.1 | 5.92 to 8.63 | > 11.1 | > 11.1 | > 11.1 | > 11.1 | COc1ccc(CCNc2ncnc(N3CCCc4cc(C)ccc43)n2)cc1OC [Compound 771] |
| 0.804 to 4.82 | > 9.04 | > 9.04 | < 0.804 | 0.804 to 4.82 | < 0.804 | > 9.04 | > 9.04 | > 9.04 | 7.03 to 9.04 | CCc1ccc(Nc2nc3ccccc3n2-c2ncnc(Nc3cc(OC)c(OC)c(OC)c3)n2)cc1 [Compound 1048] |
| > 11.8 | > 11.8 | > 11.8 | > 11.8 | > 11.8 | > 11.8 | > 11.8 | > 11.8 | > 11.8 | > 11.8 | COC(=O)c1sccc1Nc1ncnc(N2CCCc3cc(C)ccc32)n1 [Compound 767] |
| > 11.4 | > 11.4 | 1.01 to 6.07 | 1.01 to 6.07 | 6.07 to 8.85 | > 11.4 | > 11.4 | > 11.4 | 1.01 to 6.07 | > 11.4 | c1ccc(Cn2ncc3cc(Nc4ncnc(Nc5ncccn5)n4)ccc32)cc1 [Compound 738] |
| > 11.6 | > 11.6 | > 11.6 | > 11.6 | > 11.6 | > 11.6 | > 11.6 | > 11.6 | > 11.6 | > 11.6 | CCN(CC)c1ccc(Nc2ncnc(N3CCCc4cc(C)ccc43)n2)cc1 [Compound 779] |
| 0.782 to 4.69 | > 8.8 | > 8.8 | > 8.8 | > 8.8 | < 0.782 | 0.782 to 4.69 | > 8.8 | > 8.8 | 0.782 to 4.69 | COc1cc(Nc2ncnc(-n3c(Nc4ccccc4C(C)C)nc4ccccc43)n2)cc(OC)c1OC [Compound 1049] |
| 1.02 to 6.1 | > 11.4 | > 11.4 | 1.02 to 6.1 | > 11.4 | 8.9 to 11.4 | > 11.4 | > 11.4 | > 11.4 | 6.1 to 8.9 | COc1cc(Nc2ncnc(NC3CCc4ccccc43)n2)cc(OC)c1OC (centres unmarked) [Compound 581] |

Source: patent US7074789B2, “Kinase inhibitors” (Amgen Inc., priority 1999, dated 2006)
